Assay results as given in article PMC3578829, “A Small Molecule (Pluripotin) as a Tool for Studying Cancer Stem Cell Biology: Proof of Concept” (PLoS ONE, 2013).

Columns and labels:
[1] = tested on: phospho-ERK1/2; parameters: method as in PMID 17088537; settings: murine embryonic stem cells; 30 minutes of exposure; cited from earlier work
[2] = tested on: HCT-116; assay: Sphere formation assay (5% FBS); type: cell-based; parameters: key: Y indicates the presence of spheres following SC-1 treatment
Experimental: (§1) The 7 colon tumor lines were seeded in […] tissue culture treated dishes (Falcon) at low density (62,500 cells/ml) in complete media containing 5% FBS one day prior to addition of 0.1 µM SC-1 (final cell concentration 31,250 cells/ml). Photomicrographs were prepared on day 1 and day 5 following compound treatment utilizing a Zeiss XM inverted microscope and CCD cooled-camera imaging system. Nonadherent spheres were defined as floating, circular structures with well defined borders. Occasionally, exceptionally large spheres re-adhered to the tissue culture surface. Aggregates of floating cells or grape-like clusters were not considered spheres.

[3] = tested on: COLO 205; assay: Sphere formation assay (5% FBS); type: cell-based; parameters: key: Y indicates the presence of spheres following SC-1 treatment
Experimental: as §1

[4] = tested on: HT29; assay: Sphere formation assay (5% FBS); type: cell-based; parameters: key: Y indicates the presence of spheres following SC-1 treatment
Experimental: as §1

[5] = tested on: KM12; assay: Soft agar cloning assay; type: cell-based
Experimental: (§2) The soft agar colony formation assay has been previously described. In brief, for each treatment condition, triplicate 35 mm^2 dishes were coated with a 1 ml base layer containing 0.7% agarose (Seaplaque: FMC Corp., Rockland, ME). On day 0, cells were dissociated, washed once in growth medium, and subcultured by layering various cell concentrations in 0.5 ml culture medium containing 0.3% agarose onto the base coat. Culture dishes were transferred to a refrigerator (4°C) for 15 min, to room temperature for 10 min, and then to culture incubators. An upper layer of 0.5 ml culture medium was applied on day 0. Cultures were stained with MTT (1 mg/ml) for visualization and imaging at multiple time intervals (day 7 and 14). Cumulative counts of colonies (diameters, >60 µm) and cumulative volumes of CFU (diameters >120 µm) were determined with an Omnicon FAS-II (Bausch & Lomb, Rochester, NY) following calibration with an Omnicon test plate 3 and polystyrene microspheres embedded in soft agar matrix. The evaluable region of each culture dish (35 contiguous fields equivalent to 51% of the cell layer culture volume) was analyzed. Selective scoring of viable cell groups was achieved by adjustment of the instrument detection threshold to exclude images of nonstained cellular material and debris. The data was analyzed with Lotus Symphony software.

[6] = tested on: COLO 205; assay: Soft agar cloning assay; type: cell-based
Experimental: as §2

[7] = tested on: HCC-2998; assay: Soft agar cloning assay; type: cell-based
Experimental: as §2

[8] = tested on: colon tumor lines; assay: FACS analysis of CD326 and CD166, all tumor lines; type: cell-based; settings: any of the tumor lines; five days of SC-1 treatment
Description: (§3) A BD FACsAria (BD Biosciences, San Jose, CA) was utilized for FACS analysis according to standard procedures. The instrument was equipped with a 488 nm 100 mW blue laser, a 638 nm 30 mW red laser, and a 405 nm 50 mW violet laser. The software package Diva 5.0 (BD Biosciences) was used for collection and analysis of data. The alignment of the three lasers in the flow cell was verified prior to running tumor cell samples by running Rainbow Beads (Spherotech). The six colors being used in the analysis were then compensated to account for spectral overlap emitted by the fluorochromes within each laser as well as across the lasers using a semi-automated process. […] The data was then run through the Diva software compensation matrices and the amount of “spectral bleed” from other fluorochromes into the fluorochrome of interest’s channel was determined and automatically compensated.
(§4) Treated and untreated cells (1×10^6 cells/condition) were harvested with trypsin EDTA (Invitrogen), washed, and then labeled with a six antibody cocktail (antibodies against the following epitopes: CD44, CD24, CD133, CD326, CD166, and P-glycoprotein in PBS without calcium and magnesium supplemented with 2% FBS) or appropriate isotype control antibodies. […] The specific amounts needed for each labeled antibody were determined through titration studies. […]

[9] = tested on: RSK2; assay: Immunoblotting of RSK2 protein levels in COLO 205; type: cell-based; settings: 5 days of exposure to 0.1 µM SC-1
Experimental: Since SC-1 inhibited RSK2 kinase activity, we first determined if RSK2 protein levels were altered.
Standard protein electrophoretic techniques were followed using previously published protocols. For these studies, the colon lines were cultured for 5 days with and without treatments, harvested with trypsin (0.25% trypsin 0.5 mM EDTA, Invitrogen), counted and lysed with a whole cell lysis buffer (10 mM Tris, 1.0 mM EDTA, 50 mM NaCl, 0.5% deoxycholate, 0.5% NP-40, 0.5% SDS, 1.0 mM PMSF, and aprotonin and a cocktail of phosphatase and protease inhibitors). The whole cell lysate was heated to 100°C for 10 min and then fractionated (1000 g, 10 min, 4°C). Protein concentrations were measured with the Pierce BCA Protein Assay. Twenty to 40 µg of protein lysate per lane were loaded onto 10% SDS polyacrylamide gels (Ready-Gels, Biorad) with Laemmli buffer. For immunoblotting, the primary antibodies were diluted in Tween/Tris wash buffer (0.1 mM Tris-HCl pH 7.5, 2.5% Tween-20, 150 mM NaCl) and 5% BSA or nonfat dry milk and incubated overnight at 4°C. […] Pixel intensity of the imaged bands was measured using STORM (GE Amersham) and Image Quant Software. Normalization for loading was accomplished by reprobing with an anti-actin antibody, quantification of pixel intensity and data normalization.

[10] = tested on: COLO 205; assay: FACS analysis of putative CSC surface markers; type: cell-based; settings: five days of SC-1 treatment
Description: as §3, §4

[11] = soft agar, summary of SC-1 effects

Cc1cc(Nc2ncc3c(n2)N(C)C(=O)N(c2cc(NC(=O)c4cccc(C(F)(F)F)c4)ccc2C)C3)n(C)n1 [SC-1]
phospho-ERK1/2 protein levels [1]: inhibited | Sphere formation ([2]; 0.1 µM SC-1, 5% FBS, 24 hrs): uniform nonadherent spheres with well-defined borders formed | Sphere formation ([2]; summary of SC-1 effects): Y | Sphere formation ([3]; 0.1 µM SC-1, 5% FBS): sphere formation occurred in a fraction | Sphere formation ([3]; summary of SC-1 effects): Y | Sphere formation ([4]; 0.1 µM SC-1, 5% FBS, 24 hrs): uniform nonadherent spheres with well-defined borders formed | Sphere formation ([4]; summary of SC-1 effects): Y | Cloning efficiency in soft agar vs control ([5]; 0.1 µM SC-1 for five days): significant increases in cloning efficiencies | Clonogenicity [5, 11]: Y | Colony formation in soft agar vs control ([6]; 0.1 µM SC-1 for 24 hrs prior to cloning): increased colony formation was found only at the highest plating density | Cloning efficiency in soft agar vs control ([6]; 0.1 µM SC-1 for five days): significant increases in cloning efficiencies | Clonogenicity [6, 11]: Y | Cloning efficiency in soft agar vs control ([7]; 0.1 µM SC-1 for five days): significant increases in cloning efficiencies | Clonogenicity [7, 11]: Y | CD326 and CD166 surface expression [8]: No changes | Decrease of RSK2 protein levels [9]: 33% | Expression of the putative CSC markers [10]: No increased expression
